According to paper PMC2720641 (Biochemistry, 2009):

Tests used:
murine COX-2 (mCOX-2) [1] = biological target: T1, murine COX-2 (mCOX-2) (Mus musculus, UniProt Q05769); test: Instantaneous inhibition of mCOX-2 oxygenation of 2-AG; type: biochemical; details: substrate 2-AG
T1 sequence (Q05769 18-604): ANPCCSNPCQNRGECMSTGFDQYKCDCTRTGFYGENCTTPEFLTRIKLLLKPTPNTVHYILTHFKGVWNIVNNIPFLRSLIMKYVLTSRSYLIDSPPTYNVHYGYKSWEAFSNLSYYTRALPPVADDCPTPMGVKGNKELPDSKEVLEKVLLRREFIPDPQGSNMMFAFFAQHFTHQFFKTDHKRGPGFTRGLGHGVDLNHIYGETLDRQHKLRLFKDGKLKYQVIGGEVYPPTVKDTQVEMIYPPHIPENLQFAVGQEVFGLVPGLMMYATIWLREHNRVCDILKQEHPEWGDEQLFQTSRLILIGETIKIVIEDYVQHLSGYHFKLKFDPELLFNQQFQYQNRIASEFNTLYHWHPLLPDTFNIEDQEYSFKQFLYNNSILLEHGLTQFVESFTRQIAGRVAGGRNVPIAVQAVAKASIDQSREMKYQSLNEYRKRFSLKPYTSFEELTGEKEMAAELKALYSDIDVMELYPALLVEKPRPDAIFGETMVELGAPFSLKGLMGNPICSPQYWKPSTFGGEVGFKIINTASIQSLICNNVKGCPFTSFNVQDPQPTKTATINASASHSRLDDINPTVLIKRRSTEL

murine COX-2 (mCOX-2) [2] = biological target: T1, murine COX-2 (mCOX-2); test: Instantaneous inhibition of mCOX-2 oxygenation of AA; type: biochemical; details: substrate AA
mCOX-2 = biological target: T2, mCOX-2 (Mus musculus, UniProt Q05769); test: IC50 for inhibition of mCOX-2 oxygenation of AA after preincubation; type: biochemical, murine; details: read-out: IC50 for inhibition of AA oxygenation; 2 min preincubation; 50 μM AA
T2 sequence (Q05769 18-604): T1 sequence (Q05769 18-604)

SMILES	Mode of inhibition of 2-AG oxygenation (murine COX-2 (mCOX-2) [1])	Oxygenation of 2-AG at 5 μM inhibitor (murine COX-2 (mCOX-2) [1]; mefenamate 5 μM)	Mode of inhibition of AA oxygenation (murine COX-2 (mCOX-2) [2])	IC50 (mCOX-2) [µM]
Cc1cccc(Nc2ccccc2C(=O)O)c1C [mefenamic acid]	noncompetitive	completely inhibited	competitive	
COc1ccc2c(c1)c(CC(=O)O)cn2C(=O)c1ccc(Cl)cc1 [2′-des-methylindomethacin]				~500
